# From patent US10501461B2, “Tyrosine amide derivatives as Rho-kinase inhibitors” (CHIESI FARMACEUTICI S.P.A., priority 2017, dated 2019)
# Key:
# Rho kinase 1 (ROCK-I) = Rho kinase 1 (ROCK-I) (Homo sapiens, UniProt Q13464); test: In vitro Rho kinase inhibitory activity assay (ADP-Glo), Rho kinase 1; assay type: biochemical; conditions: 10 μM ATP, 25° C., expressed as range of activity
# Outline: (§1)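 First, compound was incubated with either Rho kinase isoform for 30 mins at 25 °C; next, ATP was added to 10 μM final with 2.5 μM Myelin Basic Protein substrate; after 1 hour, ADP formed was detected by ADP-Glo luminescence. Dose-response data yielded IC50, converted to Ki using Cheng-Prusoff.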
# Rho kinase 2 (ROCK-II) = Rho kinase 2 (ROCK-II) (Homo sapiens, UniProt O75116); test: In vitro Rho kinase inhibitory activity assay (ADP-Glo), Rho kinase 2; assay type: biochemical; conditions: 10 μM ATP, 25° C., expressed as range of activity
# Rho kinase 2 (ROCK-II), sequence (O75116 whole entry): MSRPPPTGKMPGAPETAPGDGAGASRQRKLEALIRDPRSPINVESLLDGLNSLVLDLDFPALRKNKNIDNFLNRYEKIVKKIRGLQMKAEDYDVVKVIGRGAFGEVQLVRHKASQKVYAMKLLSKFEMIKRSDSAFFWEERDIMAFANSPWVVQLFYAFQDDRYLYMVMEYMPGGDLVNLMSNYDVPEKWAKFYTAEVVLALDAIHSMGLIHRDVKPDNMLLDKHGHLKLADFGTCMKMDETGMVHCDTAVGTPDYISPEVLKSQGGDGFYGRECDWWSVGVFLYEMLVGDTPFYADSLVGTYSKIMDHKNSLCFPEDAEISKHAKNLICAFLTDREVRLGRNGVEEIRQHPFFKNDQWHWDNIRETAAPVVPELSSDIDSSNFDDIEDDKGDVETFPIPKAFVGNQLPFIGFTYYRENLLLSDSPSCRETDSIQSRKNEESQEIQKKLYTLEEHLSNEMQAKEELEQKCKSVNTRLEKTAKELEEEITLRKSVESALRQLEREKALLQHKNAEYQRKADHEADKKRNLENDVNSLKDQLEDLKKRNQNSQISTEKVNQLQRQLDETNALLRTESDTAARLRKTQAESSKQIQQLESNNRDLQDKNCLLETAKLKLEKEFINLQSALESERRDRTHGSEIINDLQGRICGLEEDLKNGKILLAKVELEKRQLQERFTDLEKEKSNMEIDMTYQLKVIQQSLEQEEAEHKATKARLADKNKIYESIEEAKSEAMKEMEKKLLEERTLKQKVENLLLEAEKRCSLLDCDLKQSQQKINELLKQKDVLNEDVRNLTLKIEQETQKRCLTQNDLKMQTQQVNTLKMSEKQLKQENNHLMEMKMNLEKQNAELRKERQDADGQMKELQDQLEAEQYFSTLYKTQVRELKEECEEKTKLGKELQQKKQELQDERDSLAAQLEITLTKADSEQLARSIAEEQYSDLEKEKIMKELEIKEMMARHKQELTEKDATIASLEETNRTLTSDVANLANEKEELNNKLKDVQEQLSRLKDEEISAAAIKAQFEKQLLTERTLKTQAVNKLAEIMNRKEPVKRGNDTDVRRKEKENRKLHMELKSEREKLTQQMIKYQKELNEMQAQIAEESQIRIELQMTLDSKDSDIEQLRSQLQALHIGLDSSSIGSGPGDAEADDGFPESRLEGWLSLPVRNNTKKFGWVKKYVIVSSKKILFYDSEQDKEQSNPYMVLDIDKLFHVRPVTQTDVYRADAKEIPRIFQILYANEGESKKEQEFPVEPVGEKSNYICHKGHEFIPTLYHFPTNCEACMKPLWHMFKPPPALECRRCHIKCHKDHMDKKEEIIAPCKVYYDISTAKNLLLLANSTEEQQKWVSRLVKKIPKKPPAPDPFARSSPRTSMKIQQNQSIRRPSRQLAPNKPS
# Outline: as §1
# Rho kinase 1 (ROCK-I), sequence (Q13464 whole entry, canonical isoform): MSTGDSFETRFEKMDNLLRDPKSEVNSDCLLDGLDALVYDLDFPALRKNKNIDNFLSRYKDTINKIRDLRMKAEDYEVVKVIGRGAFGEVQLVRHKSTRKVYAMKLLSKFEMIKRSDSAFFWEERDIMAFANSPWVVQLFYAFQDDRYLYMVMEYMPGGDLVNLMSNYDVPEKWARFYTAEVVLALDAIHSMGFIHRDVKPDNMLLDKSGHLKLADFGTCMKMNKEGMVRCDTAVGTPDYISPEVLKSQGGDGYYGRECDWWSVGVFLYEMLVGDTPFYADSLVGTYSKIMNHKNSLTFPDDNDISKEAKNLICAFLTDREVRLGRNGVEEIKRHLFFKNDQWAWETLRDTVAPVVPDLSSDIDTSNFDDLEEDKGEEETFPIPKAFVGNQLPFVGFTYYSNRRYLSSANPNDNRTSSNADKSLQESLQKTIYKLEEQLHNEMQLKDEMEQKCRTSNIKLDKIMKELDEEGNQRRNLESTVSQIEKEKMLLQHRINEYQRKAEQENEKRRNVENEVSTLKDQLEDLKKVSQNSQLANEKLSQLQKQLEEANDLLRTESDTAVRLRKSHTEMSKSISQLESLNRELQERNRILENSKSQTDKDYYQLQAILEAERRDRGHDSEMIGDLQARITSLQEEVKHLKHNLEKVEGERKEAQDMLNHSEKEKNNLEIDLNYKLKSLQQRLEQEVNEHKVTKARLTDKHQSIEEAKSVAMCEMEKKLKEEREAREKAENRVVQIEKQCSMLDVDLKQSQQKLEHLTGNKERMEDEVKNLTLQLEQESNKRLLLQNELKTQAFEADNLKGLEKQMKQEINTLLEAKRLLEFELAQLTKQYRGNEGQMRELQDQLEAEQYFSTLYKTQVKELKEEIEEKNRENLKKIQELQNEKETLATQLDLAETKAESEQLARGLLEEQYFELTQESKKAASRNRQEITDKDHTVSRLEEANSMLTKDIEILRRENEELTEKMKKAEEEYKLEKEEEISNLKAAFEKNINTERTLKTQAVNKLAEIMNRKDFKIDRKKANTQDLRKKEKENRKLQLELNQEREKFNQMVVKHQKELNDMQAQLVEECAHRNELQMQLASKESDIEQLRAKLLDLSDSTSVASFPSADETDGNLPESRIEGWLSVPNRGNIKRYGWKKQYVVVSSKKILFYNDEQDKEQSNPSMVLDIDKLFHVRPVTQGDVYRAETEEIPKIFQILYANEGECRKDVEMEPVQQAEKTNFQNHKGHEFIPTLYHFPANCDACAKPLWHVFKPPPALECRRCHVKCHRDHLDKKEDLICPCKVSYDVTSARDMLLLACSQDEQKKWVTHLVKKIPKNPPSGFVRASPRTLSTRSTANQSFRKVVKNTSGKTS
SMILES,Ki (Rho kinase 1 (ROCK-I)),Ki (Rho kinase 2 (ROCK-II))
"Cc1c[nH]c2nccc(Oc3ccc(CC(N)C(=O)Nc4ccncc4)cc3F)c12 (stereo not shown) [Example 71, 2-amino-3-(3-fluoro-4-((3-methyl-1H-pyrrolo[2,3-b]pyridin-4-yl)oxy)phenyl)-N-(pyridin-4-yl)propanamide]",< 3 nM,< 3 nM
"Cc1c[nH]c2ncnc(Oc3ccc(C[C@H](N)C(=O)N4CCN(C)CC4)cc3F)c12 [Example 118, (S)-2-amino-3-(3-fluoro-4-((5-methyl-7H-pyrrolo[2,3-d]pyrimidin-4-yl)oxy)phenyl)-1-(4-methylpiperazin-1-yl)propan-1-one]",3 to 30 nM,3 to 30 nM
"CN(C)CCNC(=O)[C@@H](N)Cc1ccc(Oc2ccnc3[nH]ccc23)cc1 [Example 95, (S)-3-(4-((1H-pyrrolo[2,3-b]pyridin-4-yl)oxy)phenyl)-2-amino-N-(2-(dimethylamino)ethyl)propanamide]",> 30 nM,> 30 nM
"Cc1c[nH]c2nccc(Oc3ccc(C[C@H](N)C(=O)NCC4CN(C)C4)cc3F)c12 [Example 47, (S)-2-amino-3-(3-fluoro-4-((3-methyl-1H-pyrrolo[2,3-b]pyridin-4-yl)oxy)phenyl)-N-((1-methylazetidin-3-yl)methyl)propanamide]",< 3 nM,< 3 nM
"Cc1c[nH]c2ncnc(Oc3ccc(C[C@H](N)C(=O)NCCCN(C)C)cc3F)c12 [Example 116, (S)-2-amino-N-(3-(dimethylamino)propyl)-3-(3-fluoro-4-((5-methyl-7H-pyrrolo[2,3-d]pyrimidin-4-yl)oxy)phenyl)propanamide]",3 to 30 nM,3 to 30 nM
"NC(Cc1ccc(Oc2ccnc3[nH]ccc23)cc1)C(=O)Nc1ccc(C(F)(F)F)cc1 (single isomer, unassigned) [Example 91B, 3-(4-((1H-pyrrolo[2,3-b]pyridin-4-yl)oxy)phenyl)-2-amino-N-(4-(trifluoromethyl)phenyl)propanamide]",3 to 30 nM,3 to 30 nM
"Cc1c[nH]c2nccc(Oc3ccc(CC(N)C(=O)NCCc4ccncc4)cc3F)c12 (stereo not shown) [Example 57, 2-amino-3-(3-fluoro-4-((3-methyl-1H-pyrrolo[2,3-b]pyridin-4-yl)oxy)phenyl)-N-(2-(pyridin-4-yl)ethyl)propanamide]",< 3 nM,< 3 nM
"Cc1c[nH]c2ncnc(Oc3ccc(C[C@H](N)C(=O)N4CCc5ccccc5C4)cc3F)c12 [Example 124, (S)-2-amino-1-(3,4-dihydroisoquinolin-2(1H)-yl)-3-(3-fluoro-4-((5-methyl-7H-pyrrolo[2,3-d]pyrimidin-4-yl)oxy)phenyl)propan-1-one]",< 3 nM,< 3 nM
"Cc1c[nH]c2nccc(Oc3ccc(C[C@H](N)C(=O)N4CCC(Cc5ccccc5)CC4)cc3F)c12 [Example 13, (S)-2-amino-1-(4-benzylpiperidin-1-yl)-3-(3-fluoro-4-((3-methyl-1H-pyrrolo[2,3-b]pyridin-4-yl)oxy)phenyl)propan-1-one]",< 3 nM,< 3 nM
"CN[C@@H](Cc1ccc(Oc2ccnc3[nH]ccc23)cc1)C(=O)NC1CCCCC1 [Example 131, (S)-3-(4-((1H-pyrrolo[2,3-b]pyridin-4-yl)oxy)phenyl)-N-cyclohexyl-2-(methylamino)propanamide]",3 to 30 nM,< 3 nM
"CN(C(=O)[C@H](N)Cc1ccc(Oc2ccnc3[nH]ccc23)cc1)C1CCCCC1 [Example 102, (R)-3-(4-((1H-pyrrolo[2,3-b]pyridin-4-yl)oxy)phenyl)-2-amino-N-eyclohexyl-N-methylpropanamide]",> 30 nM,> 30 nM
"Cc1c[nH]c2nccc(Oc3ccc(C[C@H](N)C(=O)N4CC[C@@H](N(C)C)C4)cc3F)c12 [Example 43, (S)-2-amino-1-((R)-3-(dimethylamino)pyrrolidin-1-yl)-3-(3-fluoro-4-((3-methyl-1H-pyrrolo[2,3-b]pyridin-4-yl)oxy)phenyl)propan-1-one]",< 3 nM,< 3 nM
"Cc1c[nH]c2nccc(Oc3ccc(C[C@H](N)C(=O)NC4(C(N)=O)CCCCC4)cc3F)c12 [Example 35, (S)-1-(2-amino-3-(3-fluoro-4-((3-methyl-1H-pyrrolo[2,3-b]pyridin-4-yl)oxy)phenyl)propanamido)cyclohexanecarboxamide]",< 3 nM,< 3 nM
"Cc1c[nH]c2nccc(Oc3ccc(C[C@H](N)C(=O)N4CCC(CN(C)C)CC4)cc3F)c12 [Example 45, (S)-2-amino-1-(4-((dimethylamino)methyl)piperidin-1-yl)-3-(3-fluoro-4-((3-methyl-1H-pyrrolo[2,3-b]pyridin-4-yl)oxy)phenyl)propan-1-one]",< 3 nM,< 3 nM
"Cc1c[nH]c2nccc(Oc3ccc(C[C@H](N)C(=O)N4CC(N(C)C)C4)cc3F)c12 [Example 41, (S)-2-amino-1-(3-(dimethylamino)azetidin-1-yl)-3-(3-fluoro-4-((3-methyl-1H-pyrrolo[2,3-b]pyridin-4-yl)oxy)phenyl)propan-1-one]",< 3 nM,< 3 nM
"Cc1c[nH]c2nccc(Oc3ccc(C[C@H](N)C(=O)N4C[C@@H](C)N(Cc5ccccc5)[C@@H](C)C4)cc3F)c12 [Example 26, (S)-2-amino-1-((3S,5R)-4-benzyl-3,5-dimethylpiperazin-1-yl)-3-(3-fluoro-4-((3-methyl-1H-pyrrolo[2,3-b]pyridin-4-yl)oxy)phenyl)propan-1-one]",< 3 nM,< 3 nM
"Cc1c[nH]c2ncnc(Oc3ccc(C[C@H](N)C(=O)NC4CCOCC4)cc3F)c12 [Example 125, (S)-2-amino-3-(3-fluoro-4-((5-methyl-7H-pyrrolo[2,3-d]pyrimidin-4-yl)oxy)phenyl)-N-(tetrahydro-2H-pyran-4-yl)propanamide]",3 to 30 nM,3 to 30 nM
"Cc1c[nH]c2nccc(Oc3ccc(C[C@H](N)C(=O)NCC4CCN(C)CC4)cc3F)c12 [Example 40, (S)-2-amino-3-(3-fluoro-4-((3-methyl-1H-pyrrolo[2,3-b]pyridin-4-yl)oxy)phenyl)-N-((1-methylpiperidin-4-yl)methyl)propanamide]",3 to 30 nM,< 3 nM
"Cc1c[nH]c2nccc(Oc3ccc(CC(N)C(=O)NCCCN4CCOCC4)cc3F)c12 (stereo not shown) [Example 79, 2-amino-3-(3-fluoro-4-((3-methyl-1H-pyrrolo[2,3-b]pyridin-4-yl)oxy)phenyl)-N-(3-morpholinopropyl)propanamide]",< 3 nM,< 3 nM

# More lines, now with the values ahead:
Ki (Rho kinase 1 (ROCK-I)),Ki (Rho kinase 2 (ROCK-II)),SMILES
3 to 30 nM,3 to 30 nM,"O=C(NC(Cc1ccc(Oc2ccnc3[nH]ccc23)cc1)C(=O)Nc1ccccc1)C1CCNC1 (stereo not shown) [Example 179, N-(3-(4-((1H-pyrrolo[2,3-b]pyridin-4-yl)oxy)phenyl)-1-oxo-1-(phenylamino)propan-2-yl)pyrrolidine-3-carboxamide]"
3 to 30 nM,3 to 30 nM,"N[C@H](Cc1cc(F)c(Oc2ccnc3[nH]ccc23)c(F)c1)C(=O)NC1CCCCC1 [Example 229, (R)-3-(4-((1H-pyrrolo[2,3-b]pyridin-4-yl)oxy)-3,5-difluorophenyl)-2-amino-N-cyclohexylpropanamide]"
< 3 nM,< 3 nM,"N#Cc1c[nH]c2nccc(Oc3ccc(C[C@H](N)C(=O)N4CCN(Cc5ccccn5)CC4)cc3F)c12 [Example 224, (S)-4-(4-(2-amino-3-oxo-3-(4-(pyridin-2-ylmethyl)piperazin-1-yl)propyl)-2-fluorophenoxy)-1H-pyrrolo[2,3-b]pyridine-3-carbonitrile]"
3 to 30 nM,3 to 30 nM,"Cc1c[nH]c2nccc(Oc3ccc(C[C@@H](N)C(=O)Nc4ccccc4)cc3)c12 [Example 138, (R)-2-amino-3-(4-((3-methyl-1H-pyrrolo[2,3-b]pyridin-4-yl)oxy)phenyl)-N-phenylpropanamide]"
< 3 nM,< 3 nM,"Cc1c[nH]c2nccc(Oc3ccc(C[C@H](N)C(=O)N4CCN(C(=O)c5cccc(CN(C)C)c5)CC4)cc3F)c12 [Example 173, (S)-2-amino-1-(4-(3-((dimethylamino)methyl)benzoyl)piperazin-1-yl)-3-(3-fluoro-4-((3-methyl-1H-pyrrolo[2,3-b]pyridin-4-yl)oxy)phenyl)propan-1-one]"
3 to 30 nM,3 to 30 nM,"COCc1c[nH]c2nccc(Oc3ccc(C[C@H](N)C(=O)NC4CCOCC4)cc3F)c12 [Example 214, (S)-2-amino-3-(3-fluoro-4-((3-(methoxymethyl)-1H-pyrrolo[2,3-b]pyridin-4-yl)oxy)phenyl)-N-(tetrahydro-2H-pyran-4-yl)propanamide]"
< 3 nM,< 3 nM,"N[C@@H](Cc1ccc(Oc2ccnc3[nH]cc(CO)c23)c(F)c1)C(=O)N1CCN(Cc2ccccc2)CC1 [Example 207, (S)-2-amino-1-(4-benzylpiperazin-1-yl)-3-(3-fluoro-4-((3-(hydroxymethyl)-1H-pyrrolo[2,3-b]pyridin-4-yl)oxy)phenyl)propan-1-one]"
3 to 30 nM,< 3 nM,"N[C@@H](Cc1ccc(Oc2ccnc3[nH]ccc23)c(F)c1)C(=O)Nc1ccccc1 [Example 147, (S)-3-(4-((1H-pyrrolo[2,3-b]pyridin-4-yl)oxy)-3-fluorophenyl)-2-amino-N-phenylpropanamide]"
3 to 30 nM,3 to 30 nM,"Cc1c[nH]c2nccc(Oc3ccc(C[C@@H](N)C(=O)NCc4ccccc4)cc3)c12 [Example 136, (R)-2-amino-N-benzyl-3-(4-((3-methyl-1H-pyrrolo[2,3-b]pyridin-4-yl)oxy)phenyl)propanamide]"
< 3 nM,< 3 nM,"Cc1c[nH]c2nccc(Oc3ccc(C[C@@H](C(=O)NC4CCCCC4)N(C)C)cc3)c12 [Example 184, (S)—N-cyclohexyl-2-(dimethylamino)-3-(4-((3-methyl-1H-pyrrolo[2,3-b]pyridin-4-yl)oxy)phenyl)propanamide]"
